Assays:
[1] = system: rat model of L-methionine-induced vascular dementia; settings: intraperitoneal 6 mg/kg/day for 9 consecutive weeks; cited from earlier work
[2] = system: rat model in which oligomerized Aβ1-40 is injected into the hippocampal dentate gyrus; settings: edaravone 5 mg/kg at the same site with intracerebral Aβ injection; cited from earlier work
[3] = mice; cited from earlier work
[4] = system: ICV-STZ model rats; assay: Morris water maze test in rats of intracerebroventricular STZ-induced dementia; type: in vivo, rat; settings: edaravone 6 mg/kg (plus dexborneol 0.8, 1.2 or 2.4 mg/kg), intraperitoneal, once daily
Protocol: The experimental animals were divided into […]: sham surgery group, model group, edaravone group (6 mg/kg), edaravone and dexborneol (7.5:1) composition (edaravone 6 mg/kg, dexborneol 0.8 mg/kg), edaravone and dexborneol (5:1) composition (edaravone 6 mg/kg, dexborneol 1.2 mg/kg), and edaravone and dexborneol (2.5:1) composition (edaravone 6 mg/kg, dexborneol 2.4 mg/kg). The animals in the model group and sham surgery groups were given the corresponding volume of blank solvent (8% propylene glycol), all administrations were intraperitoneal injection administrations, and the administration volume is 10 ml/kg.
In addition to the sham surgery group, animals with successful surgery were randomly assigned to the model group and administration groups in order. […]
This trial lasted for 4 days. The platform was fixed in the target quadrant (SE quadrant) during the trial, water entry was performed from the water entry points of the four quadrants, respectively, animals were gently placed in the water facing the sign on the pool wall during training, the time (escape latency) for the animal to find the platform was recorded, and then the animal was allowed to stay on the platform for 10 s. […]

[5] = system: SH-SY5Y-APP695; settings: 0.3 to 3 μM; cited from earlier work
[6] = target: Aβ1-42 (Homo sapiens, UniProt P05067); settings: in vitro; concentration range of 0.156 to 5 μM; cited from earlier work
Aβ1-42, sequence (P05067 672-713 limits assumed): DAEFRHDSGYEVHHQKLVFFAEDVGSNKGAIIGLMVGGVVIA

[7] = system: primary hippocampal neurons; settings: cited from earlier work

CC1=NN(c2ccccc2)C(=O)C1 [edaravone, 3-methyl-1-phenyl-2-pyrazolin-5-one]
spatial learning and memory in eight-arm water maze test [1]: can significantly improve the spatial learning and memory of the model rats in eight-arm water maze test
spatial learning and memory in water maze [2]: can significantly improve the spatial learning and memory of rats in water maze
oral bioavailability [3]: 38%
escape latency in water maze hidden platform trial, vs model group [4]: could significantly shorten the escape latency
residence time in the target quadrant in water maze space probe trial, vs model group [4]: significantly prolonged
BACE1 expression, cleavage of APP and Aβ production [5]: capable of reducing BACE1 expression, cleavage of APP and Aβ production in a concentration-dependent manner
GSK-3β activation and tau phosphorylation [5]: inhibiting GSK-3β activation and reducing tau phosphorylation
aggregation of Aβ1-42 monomer as Aβ fibrils and disaggregation of Aβ fibrils [6]: capable of inhibiting the aggregation of Aβ1-42 monomer as Aβ fibrils and disaggregating Aβ fibrils in a concentration-dependent manner
H2O2- and glutamate-induced death of primary hippocampal neurons [7]: capable of reducing H2O2— and glutamate-induced death of primary hippocampal neurons
